Data: ChEMBL document CHEMBL1201862, “PubChem BioAssay data set” (2004)
One block for each compound: values may come before it. Active and inactive are the calls of the source.

Tests used:
[1] = biological target: DNA repair and recombination protein RAD54-like (Homo sapiens, UniProt Q92698); assay: RAD54 Holliday junction migration blockers – biochemical, fluorescence, cherry-picked samples, dose series, confirmation (AID 651657); format: functional
[2] = biological target: T1, DNA repair protein RAD52 homolog (Homo sapiens, UniProt P43351); format: functional, biochemical
T1 sequence (P43351 whole entry): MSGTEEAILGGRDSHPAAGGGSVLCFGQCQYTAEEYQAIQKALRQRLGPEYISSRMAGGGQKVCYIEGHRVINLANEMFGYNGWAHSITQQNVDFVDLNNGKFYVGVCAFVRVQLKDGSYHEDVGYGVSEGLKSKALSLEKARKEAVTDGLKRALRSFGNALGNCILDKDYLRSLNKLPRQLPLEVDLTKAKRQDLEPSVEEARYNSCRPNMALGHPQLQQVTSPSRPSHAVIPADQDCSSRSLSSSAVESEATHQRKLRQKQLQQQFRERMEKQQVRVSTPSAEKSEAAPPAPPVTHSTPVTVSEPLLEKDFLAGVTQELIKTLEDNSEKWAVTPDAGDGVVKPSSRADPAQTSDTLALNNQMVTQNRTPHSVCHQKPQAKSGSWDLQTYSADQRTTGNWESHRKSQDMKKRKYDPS

[3] = biological target: T2, Sentrin-specific protease 8 (Homo sapiens, UniProt Q96LD8); format: functional
T2 sequence (Q96LD8 whole entry): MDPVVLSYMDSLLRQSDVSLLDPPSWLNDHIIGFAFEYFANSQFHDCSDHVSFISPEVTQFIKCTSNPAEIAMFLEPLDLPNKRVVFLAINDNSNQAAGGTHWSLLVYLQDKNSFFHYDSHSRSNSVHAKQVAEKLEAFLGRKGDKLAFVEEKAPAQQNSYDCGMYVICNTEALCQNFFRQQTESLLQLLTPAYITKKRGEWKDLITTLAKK

[4] = biological target: T2, Sentrin-specific protease 8; format: functional; remark: listed apart in the source
[5] = biological target: Ras and Rab interactor 1/Tyrosine-protein kinase ABL1 (Homo sapiens, UniProt P00519+Q13671); format: functional;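 also: biochemical TR-FRET dose-response test measuring inhibition of binding between Rin1 and Abl proteins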
[6] = biological target: T3, Low molecular weight phosphotyrosine protein phosphatase (Homo sapiens, UniProt P24666); format: functional; details: read-out: IC50_Mean;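 also: Dose-response confirmation assay measuring inhibition of LMPTP enzyme activity by fluorescence intensity read-out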
T3 sequence (P24666 whole entry): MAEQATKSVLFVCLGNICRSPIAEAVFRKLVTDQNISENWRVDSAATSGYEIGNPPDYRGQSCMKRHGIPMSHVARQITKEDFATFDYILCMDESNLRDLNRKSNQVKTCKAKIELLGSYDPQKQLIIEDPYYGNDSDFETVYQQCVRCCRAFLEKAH

[7] = system: Vero; assay: mammalian cell viability reduction – secondary assay, cytotoxicity control for West Nile virus antiviral project, dose response (AID 1650); format: functional; details: Chlorocebus sabaeus
[8] = biological target: DNA (cytosine-5)-methyltransferase 1 (Homo sapiens, UniProt P26358); assay: inhibition of DNA methylation by DNMT1 – biochemical, fluorescent molecular beacon, confirmation (AID 602386); format: functional
[9] = biological target: Mitochondrial peptide methionine sulfoxide reductase (Bos taurus, UniProt P54149); format: functional;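 also: absorbance read-out, biochemical high-throughput dose-response screen for MsrA inhibitors, confirmatory; recombinant bovine MsrA coupled to E. coli TrxB with NADPH and selenocystamine; potency is for inhibitors of MsrA activity on DMSO substrate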
[10] = biological target: Tyrosine-protein phosphatase non-receptor type 11 (Homo sapiens, UniProt Q06124); assay: PTPN11 enzyme inhibitors – biochemical, selectivity assay for STEP inhibitor project, dose response (AID 602367); format: functional; details: read-out: IC50_Mean
[11] = biological target: Tyrosine-protein phosphatase non-receptor type 5 (Homo sapiens, UniProt P54829); assay: PTPN5 enzyme inhibition – biochemical, fluorescence intensity, uHTS hits, confirmation (AID 602372); format: functional; details: read-out: IC50_Mean
[12] = biological target: Dual specificity protein phosphatase 3 (Homo sapiens, UniProt P51452); assay: VHR phosphatase inhibition, dose response, selectivity assay for STEP inhibitor project, biochemical (AID 602374); format: functional; details: read-out: IC50_Mean
Dual specificity protein phosphatase 3, sequence (P51452 whole entry): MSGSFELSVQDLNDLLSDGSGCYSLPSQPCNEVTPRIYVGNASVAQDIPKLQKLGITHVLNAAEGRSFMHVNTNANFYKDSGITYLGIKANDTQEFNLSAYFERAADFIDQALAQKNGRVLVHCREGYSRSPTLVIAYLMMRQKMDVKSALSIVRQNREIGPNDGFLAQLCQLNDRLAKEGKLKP

Mitochondrial peptide methionine sulfoxide reductase, sequence (P54149 whole entry): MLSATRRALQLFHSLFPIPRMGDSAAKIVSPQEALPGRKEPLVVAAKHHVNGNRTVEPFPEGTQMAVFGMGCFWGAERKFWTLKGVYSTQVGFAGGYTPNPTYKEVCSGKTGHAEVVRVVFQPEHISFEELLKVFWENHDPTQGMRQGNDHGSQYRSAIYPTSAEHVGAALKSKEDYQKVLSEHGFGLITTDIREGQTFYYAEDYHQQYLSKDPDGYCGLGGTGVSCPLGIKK
Tyrosine-protein phosphatase non-receptor type 5, sequence (P54829 whole entry): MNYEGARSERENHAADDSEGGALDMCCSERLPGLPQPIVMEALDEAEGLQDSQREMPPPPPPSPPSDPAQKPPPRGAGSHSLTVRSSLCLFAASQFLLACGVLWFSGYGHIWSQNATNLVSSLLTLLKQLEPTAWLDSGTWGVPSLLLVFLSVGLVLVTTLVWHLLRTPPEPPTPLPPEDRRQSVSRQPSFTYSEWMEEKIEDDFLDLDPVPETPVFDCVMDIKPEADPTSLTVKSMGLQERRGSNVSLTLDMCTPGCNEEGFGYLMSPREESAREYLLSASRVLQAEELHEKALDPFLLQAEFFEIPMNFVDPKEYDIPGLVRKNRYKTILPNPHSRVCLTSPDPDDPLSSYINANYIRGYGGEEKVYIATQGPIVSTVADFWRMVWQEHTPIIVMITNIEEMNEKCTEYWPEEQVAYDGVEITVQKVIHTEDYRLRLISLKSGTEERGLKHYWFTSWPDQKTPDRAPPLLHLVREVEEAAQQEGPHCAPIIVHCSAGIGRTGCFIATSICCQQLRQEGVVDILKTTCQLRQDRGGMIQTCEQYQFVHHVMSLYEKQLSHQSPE
Ras and Rab interactor 1/Tyrosine-protein kinase ABL1, sequence (P00519 whole entry): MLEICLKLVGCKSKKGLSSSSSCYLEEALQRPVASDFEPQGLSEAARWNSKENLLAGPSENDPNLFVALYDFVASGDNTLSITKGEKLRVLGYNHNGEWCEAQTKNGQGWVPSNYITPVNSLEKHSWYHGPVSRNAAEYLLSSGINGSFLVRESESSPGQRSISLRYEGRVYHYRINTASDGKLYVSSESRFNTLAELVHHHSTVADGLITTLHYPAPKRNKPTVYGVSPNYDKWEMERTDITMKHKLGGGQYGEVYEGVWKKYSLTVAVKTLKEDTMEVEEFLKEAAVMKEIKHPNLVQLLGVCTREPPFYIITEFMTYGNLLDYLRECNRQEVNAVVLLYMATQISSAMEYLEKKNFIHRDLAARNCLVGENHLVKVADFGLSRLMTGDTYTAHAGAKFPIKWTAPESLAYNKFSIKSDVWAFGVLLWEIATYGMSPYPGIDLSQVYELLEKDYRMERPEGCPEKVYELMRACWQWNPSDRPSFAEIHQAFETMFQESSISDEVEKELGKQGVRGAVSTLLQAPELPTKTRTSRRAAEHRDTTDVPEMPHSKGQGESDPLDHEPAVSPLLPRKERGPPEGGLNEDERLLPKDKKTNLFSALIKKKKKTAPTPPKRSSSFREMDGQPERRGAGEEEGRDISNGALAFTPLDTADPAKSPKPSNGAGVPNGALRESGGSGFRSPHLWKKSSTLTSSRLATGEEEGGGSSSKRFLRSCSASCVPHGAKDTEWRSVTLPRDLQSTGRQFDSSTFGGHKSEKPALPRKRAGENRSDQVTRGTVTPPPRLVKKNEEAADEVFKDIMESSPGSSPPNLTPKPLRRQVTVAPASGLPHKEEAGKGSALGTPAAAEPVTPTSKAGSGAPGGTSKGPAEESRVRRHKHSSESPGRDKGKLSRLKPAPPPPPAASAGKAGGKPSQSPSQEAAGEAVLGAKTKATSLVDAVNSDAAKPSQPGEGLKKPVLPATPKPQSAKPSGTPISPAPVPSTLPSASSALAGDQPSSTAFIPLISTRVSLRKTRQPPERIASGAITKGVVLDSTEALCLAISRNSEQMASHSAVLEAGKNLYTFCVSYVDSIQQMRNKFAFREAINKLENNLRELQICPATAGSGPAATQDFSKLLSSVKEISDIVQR
Ras and Rab interactor 1/Tyrosine-protein kinase ABL1, sequence (Q13671 whole entry): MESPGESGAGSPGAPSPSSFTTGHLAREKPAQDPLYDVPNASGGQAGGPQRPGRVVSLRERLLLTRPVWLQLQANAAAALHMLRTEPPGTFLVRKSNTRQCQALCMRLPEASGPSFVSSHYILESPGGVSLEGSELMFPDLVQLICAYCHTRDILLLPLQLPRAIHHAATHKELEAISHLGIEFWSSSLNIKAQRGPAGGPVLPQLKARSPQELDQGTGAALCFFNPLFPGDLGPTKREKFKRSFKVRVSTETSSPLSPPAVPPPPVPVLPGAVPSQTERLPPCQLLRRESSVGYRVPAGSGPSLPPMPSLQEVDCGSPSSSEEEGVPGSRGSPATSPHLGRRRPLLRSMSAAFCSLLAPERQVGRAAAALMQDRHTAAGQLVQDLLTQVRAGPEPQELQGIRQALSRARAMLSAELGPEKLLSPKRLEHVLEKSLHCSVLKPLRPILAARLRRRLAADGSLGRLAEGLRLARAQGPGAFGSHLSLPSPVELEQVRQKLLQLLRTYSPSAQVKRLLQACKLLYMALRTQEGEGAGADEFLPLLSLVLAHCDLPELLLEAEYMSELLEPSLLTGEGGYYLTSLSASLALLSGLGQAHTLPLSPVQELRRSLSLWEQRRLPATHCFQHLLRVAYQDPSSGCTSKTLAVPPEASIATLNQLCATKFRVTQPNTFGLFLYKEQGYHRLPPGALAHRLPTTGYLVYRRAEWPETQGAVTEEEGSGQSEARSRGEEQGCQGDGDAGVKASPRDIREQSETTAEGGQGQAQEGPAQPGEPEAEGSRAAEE
DNA repair and recombination protein RAD54-like, sequence (Q92698 whole entry): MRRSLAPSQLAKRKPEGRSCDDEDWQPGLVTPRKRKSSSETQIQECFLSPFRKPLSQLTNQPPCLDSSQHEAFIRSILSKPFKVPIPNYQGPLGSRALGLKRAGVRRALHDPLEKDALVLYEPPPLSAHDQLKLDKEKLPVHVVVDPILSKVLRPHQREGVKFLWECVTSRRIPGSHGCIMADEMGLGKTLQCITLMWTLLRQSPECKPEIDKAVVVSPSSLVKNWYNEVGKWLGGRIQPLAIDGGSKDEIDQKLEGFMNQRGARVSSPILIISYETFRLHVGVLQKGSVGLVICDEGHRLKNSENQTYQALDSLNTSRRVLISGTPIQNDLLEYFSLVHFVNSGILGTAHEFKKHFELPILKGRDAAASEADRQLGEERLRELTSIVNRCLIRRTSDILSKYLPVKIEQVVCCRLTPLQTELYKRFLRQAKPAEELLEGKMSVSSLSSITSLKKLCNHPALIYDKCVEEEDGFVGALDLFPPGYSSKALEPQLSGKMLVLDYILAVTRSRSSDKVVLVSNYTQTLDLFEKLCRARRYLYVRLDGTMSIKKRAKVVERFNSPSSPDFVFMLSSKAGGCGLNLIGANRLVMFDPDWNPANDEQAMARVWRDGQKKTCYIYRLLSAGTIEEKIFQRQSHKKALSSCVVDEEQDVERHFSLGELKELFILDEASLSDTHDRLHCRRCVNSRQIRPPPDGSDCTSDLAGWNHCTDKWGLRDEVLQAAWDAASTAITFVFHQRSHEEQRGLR

AC50 [1]: 47.8 µM (active) | AC50 [2]: 9.04 µM (active)
SMILES: CN(C)CCNC(=O)c1cccc(-c2cnc3c(NC=O)cc(-c4ccc(C(=O)N5CCOCC5)cc4)cn23)c1

SMILES: COC(=O)CCCC1=CC2=CC(=O)C(C)(OC(=O)c3cccs3)C(=O)C2=CN1CCc1ccccn1 (configuration not stated)
IC50 [3]: 20.9 µM (active) | IC50 [4]: 9.96 µM (active)

IC50 [5]: 9.82 µM (active)
SMILES: CCOc1ccc(CCNC(=O)CN2C(=O)c3cccnc3Oc3ccc(C)cc32)cc1OCC

IC50 [6]: 9.3 µM (active)
SMILES: COc1ccc2ncccc2c1Cc1c(OC)ccc2ncccc12

IC50 [8]: 5.12 µM (active)
SMILES: O=C(CSc1nc(O)c2ccccc2n1)Nc1nc(-c2ccc(Br)cc2)cs1
CC50 [7]: 35.9 µM (active)

IC50 [9]: 85.5 µM (inactive)
SMILES: COc1ccc2cc(-c3n[nH]cc3CN3CCCC3c3nonc3C)ccc2c1 (configuration not stated)

IC50 [10]: 6.29 µM (active) | IC50 [11]: 29.4 µM (inactive) | IC50 [12]: 1.48 µM (active)
SMILES: Sc1ncnc2c1ncn2-c1ccc(Cl)cc1
